Measured values reported in article PMC11336835 (Heliyon, 2024).
≈ marks a conversion by molar mass, not a printed value. Like-named read-outs stand apart in the source and are kept apart here. *1 amine or outer side, *2 acyl side, *3 side chain or, on linkers, in order; H or OH if unused. Where a SMILES comes first, the peptide text is derived from it. Bridges are numbered along the chain shown (N, C = ends). Roman numbers before positions name the chains, in order. [ ]: non-standard residue; d: D form. Actinocin(9to1) = Cc1c2oc3c(C)ccc(C(=O)[*:1])c3nc-2c(C(=O)[*:2])c(N)c1=O; NMeV = CN[C@H](C(=O)O)C(C)C; Sar = CNCC(=O)O

Experiments:
[1] = tested on: Mycobacterium tuberculosis H37Rv; assay: Resazurin reduction growth inhibition assay, M. tuberculosis H37Rv; type: cell-based; conditions: for IC50: Mycobacterium tuberculosis, H37RV, read-out: IC50 against Mycobacterium tuberculosis H37Rv; for IC50 / IC50 against Mycobacterium tuberculosis H37Rv: means ± SEM of triplicates
Shikimate kinase (MtSK) = target: T1, Shikimate kinase (MtSK) (Mycobacterium tuberculosis, UniProt P9WPY3); assay: Recombinant MtSK inhibition, ADP coupling assay; type: biochemical, M. tuberculosis; conditions: for IC50: read-out: Inhibition Concentration (IC50), MtSK (converted); for Ki: read-out: inhibition constant (Ki), MtSK (converted)
T1 construct: made in house; host or cells: E. coli
T1 sequence (P9WPY3 whole entry): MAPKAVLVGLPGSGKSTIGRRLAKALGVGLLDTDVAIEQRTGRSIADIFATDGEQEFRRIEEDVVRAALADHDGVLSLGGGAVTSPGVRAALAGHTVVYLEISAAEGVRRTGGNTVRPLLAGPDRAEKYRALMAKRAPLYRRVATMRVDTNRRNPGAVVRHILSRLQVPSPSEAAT
Experimental: In this study, we conducted enzymatic assays to assess the inhibition of the pure compound isolated in this experiment. We also assayed control and standard drugs (rifampicin and actinomycin D). At this time, we focused on three essential enzymes in M. tuberculosis: Shikimate kinase (MtSK), phosphopantothenoylcysteine synthetase phosphopantothenoylcysteine decarboxylase (MtCoABC), and 5-enolpyruvylshikimate-3-phosphate synthase (MtEPSPS), based on docking results. All these enzymes were prepared as recombinant proteins expressed in E. coli (details not included in this study or unpublished data). For the MtSK inhibition assessment, we quantified the production of ADP in the reaction using a coupling assay, as previously described. In the case of MtCoABC and MtEPSPS inhibition, we employed a pyrophosphate assay with the BIOMOL® Green reagent (Enzo Life Sciences). All assays were conducted on a 96-well plate format, with each well having a final volume of 50 μL.

Salmonella enterica = assay: Antimicrobial spectrum assay, Salmonella enterica; type: cell-based; conditions: ND = no inhibition detected at maximum concentration tested (100 μg/mL)
[2] = tested on: Mycobacterium bovis var BCG; assay: organism not typed; type: cell-based; conditions: for IC50: read-out: IC50 against Mycobacterium bovis var BCG
Bacillus subtilis = assay: Antimicrobial spectrum assay, Bacillus subtilis; type: cell-based; conditions: for IC50: Bacillus subtilis, read-out: IC50 against Bacillus subtilis
[3] = tested on: Mycobacterium smegmatis mc2155; assay: Resazurin reduction growth inhibition assay, M. smegmatis; type: cell-based; conditions: for IC50: Mycolicibacterium smegmatis, MC2155, growth inhibition, resazurin, means ± SEM of triplicates, read-out: IC50 against Mycobacterium smegmatis
Staphylococcus aureus = assay: Antimicrobial spectrum assay, Staphylococcus aureus; type: cell-based; conditions: for IC50: Staphylococcus aureus, read-out: IC50 against Staphylococcus aureus
in vitro = conditions: human, DLD-1 colorectal adenocarcinoma cells
Experimental: The cytotoxicity assay involved the evaluation of cytotoxic effects on human cells using the colorectal adenocarcinoma cell line (DLD-1). The DLD-1 cells were cultured in a 75 cm^2 flask (Violamo) at 37 °C, with Roswell Park Memorial Institute (RPMI 1640) medium supplemented with 10 % FBS, 2.1 mM stable Glutamine, and 2.0 g/L NaHCO3. DLD-1 cells in a semiconfluent state were detached from the flask by incubating them with 5 mL of RPMI 1640 containing 0.25 % trypsin-EDTA to conduct the assay. After detachment, the DLD-1 cells were resuspended in RPMI 1640 supplemented with FBS, L-glutamine, and NaHCO3, and their cell viability was assessed using 0.4 % Trypan blue on a hemocytometer. Approximately 100 μL of the cell suspension, containing 3,000 cells, was added to each well of a 96-well clear-bottom plate. Cells were dispensed into the wells containing 2 μL of compounds dissolved in 50 % DMSO (final compound concentrations: 100, 20, 4, 0.8, and 0.2 μM and final DMSO concentration was 1 % each well). The culture plate was then incubated at 37 °C under 5 % CO2. Following 48 h of cultivation, 10 μL of Cell Counting Kit 8 (Dojindo, Japan) was added to each well, and the plates were further incubated for 2 h to examine cell growth and survival. The absorbance at 450 nm wavelength was measured using a microplate reader. The assay was conducted in triplicate for each dilution.

[4] = Solubility of the purified compound in solvents; type: physicochemical; conditions: qualitative

**Q.** With `Cc1c2oc3c(C)ccc(C(=O)N[C@@H]4C(=O)N[C@H](C(C)C)C(=O)N5CCC[C@H]5C(=O)N(C)CC(=O)N(C)[C@@H](C(C)C)C(=O)O[C@@H]4C)c3nc-2c(C(=O)N[C@@H]2C(=O)N[C@H](C(C)C)C(=O)N3CCC[C@H]3C(=O)N(C)CC(=O)N(C)[C@@H](C(C)C)C(=O)O[C@@H]2C)c(N)c1=O` [Actinomycin D, actinomycin D] (I: T[dV]P[Sar][NMeV] / II: T[dV]P[Sar][NMeV]; ester I:1-I:C, II:1-II:C; linker I:N-II:N via Actinocin(9to1)) as the compound, how does the IC50 ([1]; […]) read?
**A.** Its IC50 is 0.8 ± 0.12 mg/L (≈ 0.637 µM).

**Q.** What about the IC50 (Shikimate kinase (MtSK)) of the same compound?
**A.** Its IC50 is 71.6 µM.

**Q.** And the Ki (Shikimate kinase (MtSK))?
**A.** The Ki was 94.9 µM.

**Q.** And the “IC50 against Salmonella enterica” value (Salmonella enterica)?
**A.** Its value is 14.65 ± 1.22 mg/L (≈ 11.7 µM).

**Q.** And the IC50 (Salmonella enterica; Salmonella enterica, read-out: IC50 against Salmonella enterica)?
**A.** The IC50 was 14.7 mg/L (≈ 11.7 µM).

**Q.** What about the “IC50 against Mycobacterium bovis var BCG” value [2] of the same compound?
**A.** The value was 0.8 ± 0.09 mg/L (≈ 0.637 µM).

**Q.** And the “IC50 against Bacillus subtilis” value (Bacillus subtilis)?
**A.** The value was less than 0.3 mg/L.

**Q.** And the “IC50 against Mycobacterium smegmatis” value [3]?
**A.** The value was 0.78 ± 0.21 mg/L (≈ 0.621 µM).

**Q.** And the “IC50 against Staphylococcus aureus” value (Staphylococcus aureus)?
**A.** Its value is less than 0.3 mg/L.

**Q.** Which “increase in potency against M. tuberculosis compared to actinomycin D” value [1] does the source give for `Cc1c2oc3c(C)ccc(C(=O)N[C@@H]4C(=O)N[C@H](C(C)C)C(=O)N5CCC[C@H]5C(=O)N(C)CC(=O)N(C)[C@@H](C(C)C)C(=O)O[C@@H]4C)c3nc-2c(C(=O)N[C@@H]2C(=O)N[C@H](C(C)C)C(=O)N3CCC[C@H]3C(=O)N(C)CC(=O)N(C)[C@@H](C(C)C)C(=O)O[C@@H]2C)c(N)c1=O` [F5(23), actinomycin D] (I: T[dV]P[Sar][NMeV] / II: T[dV]P[Sar][NMeV]; ester I:1-I:C, II:1-II:C; linker I:N-II:N via Actinocin(9to1)) here?
**A.** The value was 10 fold.

**Q.** And the IC50 ([1]; growth inhibition, resazurin)?
**A.** Its IC50 is 0.07 ± 0.009 mg/L (≈ 0.0558 µM).

**Q.** What about the “potency against M. tuberculosis compared to rifampicin” value ([1]; greater effect than rifampicin) of the same compound?
**A.** Its value is roughly 10 fold.

**Q.** What about the IC50 (Shikimate kinase (MtSK); recombinant enzyme) of the same compound?
**A.** The IC50 was 32.8 µM.

**Q.** And the Ki (Shikimate kinase (MtSK); recombinant enzyme)?
**A.** Its Ki is 46.2 µM.

**Q.** And the “IC50 against Salmonella enterica” value (Salmonella enterica)?
**A.** Its value is “no inhibitory effect”.

**Q.** And the “increase in potency against M. bovis compared to actinomycin D” value [2]?
**A.** Its value is 10 fold.

**Q.** And the IC50 [2]?
**A.** Its IC50 is 0.02 ± 0.01 mg/L (≈ 0.0159 µM).

**Q.** And the IC50 (Bacillus subtilis)?
**A.** Its IC50 is less than 0.3 mg/L.

**Q.** What about the IC50 at 48 h (in vitro) of the same compound?
**A.** Its IC50 at 48 h is greater than 80 mg/L.

**Q.** What about the IC50 [3] of the same compound?
**A.** Its IC50 is 0.74 ± 0.03 mg/L (≈ 0.589 µM).

**Q.** What about the IC50 (Staphylococcus aureus) of the same compound?
**A.** The IC50 was less than 0.3 mg/L.

**Q.** And the solubility in solvents [4]?
**A.** Its solubility in solvents is “soluble in dichloromethane, chloroform, methanol, ethyl acetate and DMSO”.

**Q.** With `CO[C@H]1/C=C/O[C@@]2(C)Oc3c(C)c(O)c4c(O)c(c(/C=N/N5CCN(C)CC5)c(O)c4c3C2=O)NC(=O)/C(C)=C\C=C\[C@H](C)[C@H](O)[C@@H](C)[C@@H](O)[C@@H](C)[C@H](OC(C)=O)[C@@H]1C` [Rifampicin] as the compound, how does the “IC50 against Mycobacterium tuberculosis H37Rv” value ([1]; growth inhibition, resazurin) read?
**A.** Its value is less than 0.01 mg/L.

**Q.** And the “IC50 against Mycobacterium tuberculosis H37Rv” value ([1]; growth inhibition, resazurin, listed as rifampicin)?
**A.** The value was 0.8 ± 0.12 mg/L (≈ 0.972 µM).

**Q.** What about the IC50 [2] of the same compound?
**A.** The IC50 was less than 0.03 mg/L.

**Q.** And the IC50 (Bacillus subtilis)?
**A.** The IC50 was less than 0.3 mg/L.

**Q.** And the IC50 [3]?
**A.** The IC50 was 0.48 ± 0.07 mg/L (≈ 0.583 µM).

**Q.** And the IC50 (Staphylococcus aureus)?
**A.** The IC50 was less than 0.3 mg/L.
